Experimental data reported in patent US20230416329A1, “A PEPTIDE WITH DISULFIDE BONDS AND INHIBITORY ACTIVITY AGAINST SERINE PROTEASES, DERIVED HYBRID PEPTIDES THEREOF, AND USES THEREOF” (INSTITUTE OF MATERIA MEDICA , CHINESE ACADEMY OF MEDICAL …, priority 2020, published 2023).
Bridge positions count the residues as written; N and C are the ends. Peptide text beside a SMILES is read from it.

Experiments:
[1] = molecular target: chymotrypsin (Bos taurus, UniProt P00766); test: in vitro; conditions: for Remaining peak area (%)/chymotrypsin: 0 h; for remaining at 0.025 h, 60 μM / remaining at 0.05 h, 60 μM / remaining at 0.075 h, 60 μM / remaining at 0.1 h, 60 μM / remaining at 0.15 h, 60 μM / remaining at 0.25 h, 60 μM / remaining at 0.5 h, 60 μM / remaining at 1 h, 60 μM: isolated enzyme chymotrypsin, pH 7.8, Remaining peak area (%)/chymotrypsin
Description: FIG. 18. […] At different time point, 25 μL aliquots was taken out, and 10% (v/v) TFA was added to terminate the reaction.
(§1) Mix by centrifugation at 8000 rpm for 30 seconds.
(§2) Arrange a certain volume of 0.05 μg/μL chymotrypsin solution in another sterile EP. Incubate the EP tubes containing peptides and enzymes at 37° C. for 5 min, and add 3 μL of […] solution to each EP tube containing peptides and mix well. Start timing and extract 25 μL of reaction solution at 1.5, 3.0, 4.5, 6.0 and 9.0 min later, respectively. Add 3.75 μL of 10% TFA to terminate the reaction and mix well by centrifugation at 8000 rpm for 30 seconds.
(§3) Arrange a certain volume of 0.05 μg/μL chymotrypsin solution in another sterile EP. Incubate the EP tubes containing peptides and enzymes at 37° C. for 5 min, and then add 4.5 μL of chymotrypsin solution to each EP tube containing peptides and mix well. Start timing and extract 25 μL of reaction solution at 1.5, 3.0, 4.5, 6.0, 9.0, 15.0, 30.0, and 60.0 min later, respectively. Add 3.75 μL of 10% TFA to terminate the reaction and mix well by centrifugation at 8000 rpm for 30 seconds.
(§4) Referring to the experimental method in Example 5, in vitro stability of salmon Calcitonin analogs with oral administration activity to the enzymatic hydrolysis by trypsin, chymotrypsin and elastase were performed.
(§5) Referring to the experimental method in Example 5, in vitro stability of IL-17A inhibitory peptides towards the enzymatic hydrolysis by trypsin, chymotrypsin and elastase were performed.

[2] = molecular target: T1, trypsin (Bos taurus, UniProt P00760); test: in vitro
T1 sequence (P00760 24-246): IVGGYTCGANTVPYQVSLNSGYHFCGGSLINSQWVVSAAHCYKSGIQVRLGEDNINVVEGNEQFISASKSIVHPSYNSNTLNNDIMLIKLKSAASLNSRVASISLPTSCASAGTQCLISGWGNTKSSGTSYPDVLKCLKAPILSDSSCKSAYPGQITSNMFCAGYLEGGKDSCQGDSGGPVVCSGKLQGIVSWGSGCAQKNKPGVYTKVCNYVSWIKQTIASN
Description: FIG. 17. […] At different time point, 25 μL aliquots was taken out, and 10% (v/v) TFA was added to terminate the reaction.
as §1
as §2, with “0.05 μg/μL trypsin solution in” for “0.05 μg/μL chymotrypsin solution in”, “min, and separately add 6” for “min, and add 3”, “separately add 6 μL of” for “and add 3 μL of”
as §3, with “μg/μL trypsin” for “μg/μL chymotrypsin”, “and” for “and then”, “add 9” for “add 4.5”, “of trypsin” for “of chymotrypsin”
as §4, §5

[3] = molecular target: porcine pancreatic elastase (Sus scrofa, UniProt P00772); test: Elastase inhibitory activity of peptides (AAApNA hydrolysis; IC50, Ki, residual activity); format: biochemical; conditions: for IC50: elastase 0.5 μM, AAApNA 1 mM
Description: The inhibition constants of various synthetic active peptide inhibitors (molecular scaffolds) against seine proteases were measured. The substrates N-succinyl-Ala-Ala-Pro-Phe-p-nitroaniline (AAPFpNA), Nα—Benzoyl-L-arginine-4-nitroaniline hydrochloride (BApNA) and N-succinyl-[…] (AAApNA) are used in competitive binding reaction to determine the inhibitory activities against α-chymotrypsin, bovine trypsin, and porcine pancreatic elastase, respectively. Experiments for α-chymotrypsin and bovine trypsin inhibition were measured in 20 mM CaCl2, 50 mM Tris-HCl buffer (pH 7.8), and that for porcine elastase inhibition was measured in 50 mM Tris-HCl buffer (pH 8.0). The concentration of the peptide was measured using optical density (OD) at 280 nm. The Michaelis constant (Km) of the enzyme hydrolysis substrate is calculated from the initial rate of substrate hydrolysis at 405 nm. The absorbance value of the substrate was measured at 405 nm after complete hydrolysis. All data were processed using nonlinear regression.
• (1) Added a total 198 μL of reaction buffer (20 mM CaCl2, 50 mM Tris-HCl (pH 8.0)) into the 96 well plate, followed by preheating at 37° C. for 15 min. Then added 2 μL of different concentrations of substrates (pNA, dissolved in DMSO), and mixed by centrifugation at 500 rpm for 1 min. Finally, the plate was incubated at 37° C. for 30 min, and the absorbance value at 405 nm was measured. In the 200 μL of reaction system, the final concentrations of pNA were 0, 0.025, 0.05, 0.075, 0.1, 0.125, 0.15, 0.175, and 0.2 mM, respectively. Make three repetitions for each concentration and plot the OD405 m value with pNA concentration to obtain the standard curve. • (2) Added a total 190 μL of reaction buffer (20 mM CaCl2, 50 mM Tris-HCl (pH 8.0)) and 8 μL of 4.375 μM elastase into the 96 well plate, followed by preheating at 37° C. for 5 min. Then added 2 μL of different concentrations of substrates (AAApNA, dissolved in DMSO), and mixed by centrifugation at 500 rpm for 1 min. Finally, the plate was incubated at 37° C. for 30 min, and the absorbance value at 405 nm was measured. In the 200 μL of reaction system, the final concentrations of AAApNA were 0, 0.125, 0.166, 0.2, 0.25, 0.33, 0.6, 0.75, and 1.25 mM, respectively. Make three repetitions for each concentration and plot the OD405 nm value with time to obtain the corresponding curve. Divide the slope of the curve by the slope of the standard curve and the enzyme concentration to obtain the initial velocity V0 (mM/(min*mM protein). Plot the initial velocity V0 with the concentration of substrate AAApNA using Prism software, and the Michaelis constant Km value of elastase hydrolyzing AAApNA was obtained.
• (1) Added a total 190 μL of different concentrations of peptides (ECs) against elastase and reaction buffer (20 mM CaCl2, 50 mM Tris-HCl buffer (pH 8.0)) into the pre-cold 96 well plate, followed by preheating at 37° C. for 5 min and centrifugated at 500 rpm for 1 min and allowed to stand for 4 minutes. Then added 8 μL of 12.5 μM elastase and incubated at 37° C. for 10 min and centrifugated at 500 rpm for 1 min and allowed to stand for 9 minutes. Finally, added 2 μL of 100 mM AAApNA, and mixed by centrifugation at 500 rpm for 1 min. The plate was incubated at 37° C. for 60 min, and the absorbance value at 405 nm was measured. Three repetitions were made, and only reaction buffer and substrate were added in the blank control as the minimum absorption value (Min OD405 nm); Only reaction buffer, enzyme and substrate were added in the negative control as the maximum absorption value (Max OD405 nm). • (2) In the 200 μL of reaction system, the final concentrations of elastase and AAApNA were 0.5 μM and 1 mM, respectively. • (3) Data statistics
Residual activity of enzyme (%)=(1−(Max OD405 nm−Sample OD405 nm)/(Max OD405 nm−Min OD405 nm))*100 […]

[4] = isolated enzyme trypsin, pH 7.8

porcine pancreatic elastase, sequence (P00772 27-266): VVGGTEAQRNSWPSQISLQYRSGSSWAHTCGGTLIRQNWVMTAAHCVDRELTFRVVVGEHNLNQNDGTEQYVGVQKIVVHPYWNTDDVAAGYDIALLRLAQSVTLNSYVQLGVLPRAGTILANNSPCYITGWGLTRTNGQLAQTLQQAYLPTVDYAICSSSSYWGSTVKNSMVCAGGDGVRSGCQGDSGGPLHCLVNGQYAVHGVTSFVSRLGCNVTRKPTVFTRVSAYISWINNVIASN

SMILES | Remaining peak area (%)/chymotrypsin [1] | remaining at 0.025 h, 60 μM [1] | remaining at 0.05 h, 60 μM [1] | remaining at 0.075 h, 60 μM [1] | remaining at 0.1 h, 60 μM [1] | remaining at 0.15 h, 60 μM [1] | remaining at 0.25 h, 60 μM [1] | remaining at 0.5 h, 60 μM [1] | remaining at 1 h, 60 μM [1] | IC50 [3] | other results
CC[C@H](C)[C@H](N)C(=O)N[C@@H](Cc1c[nH]cn1)C(=O)N[C@H](C(=O)N[C@H](C(=O)N[C@H](C(=O)N1CCC[C@H]1C(=O)N[C@@H](C)C(=O)N[C@@H](CC(=O)O)C(=O)N[C@@H](CC(C)C)C(=O)N[C@@H](Cc1c[nH]c2ccccc12)C(=O)N[C@@H](CC(=O)O)C(=O)N[C@@H](Cc1c[nH]c2ccccc12)C(=O)N[C@H](C(=O)N[C@@H](CC(N)=O)C(=O)NCC(=O)N[C@H]1CSSC[C@@H](C(=O)N[C@@H](Cc2ccccc2)C(=O)O)NC(=O)[C@H]([C@@H](C)CC)NC(=O)[C@@H]2CCCN2C(=O)[C@@H]2CCCN2C(=O)[C@H]([C@@H](C)CC)NC(=O)[C@H](CO)NC(=O)[C@H](CCCCN)NC(=O)[C@H]([C@@H](C)O)NC(=O)[C@H](C)NC(=O)[C@H](CCCNC(=N)N)NC(=O)CNC1=O)[C@@H](C)CC)[C@@H](C)CC)[C@@H](C)O)C(C)C [17A-BT] (H-IHVTIPADLWDWINGCGRATKSIPPICF-OH; disulfide 16-27) | 100.0 ± 0.0% | 69.6 ± 3% | 68.9 ± 4.8% | 48.1 ± 4.3% | 45.2 ± 1.3% | 42.9 ± 3% | 37 ± 1.7% | 26.4 ± 0.4% | 9.6 ± 0.8% | – | stability towards trypsin hydrolysis (in words) [2]: tolerated to the degradation of corresponding serine proteases
CC[C@H](C)[C@@H]1NC(=O)[C@H](CO)NC(=O)[C@H](Cc2ccc(O)cc2)NC(=O)[C@H]([C@@H](C)O)NC(=O)[C@@H](NC(=O)[C@H](Cc2ccccc2)NC(=O)CNC(=O)[C@@H]2CCCN2C(=O)[C@@H](NC(=O)CNC(=O)[C@H](CO)NC(=O)CNC(=O)[C@@H](NC(=O)[C@H](CC(N)=O)NC(=O)[C@@H](NC(=O)[C@H](CCCNC(=N)N)NC(=O)[C@@H]2CCCN2C(=O)[C@H](Cc2ccc(O)cc2)NC(=O)[C@@H](NC(=O)[C@H](CCC(N)=O)NC(=O)[C@H](CC(C)C)NC(=O)[C@H](CCCCN)NC(=O)[C@H](Cc2c[nH]cn2)NC(=O)[C@H](C)NC(=O)[C@H](CCC(=O)O)NC(=O)[C@H](CCC(N)=O)NC(=O)[C@H](CO)NC(=O)[C@H](CC(C)C)NC(=O)[C@H](CCCCN)NC(=O)CNC(=O)[C@H](CC(C)C)NC(=O)CNC(=O)[C@@H]2CSSC[C@H](N)C(=O)N[C@@H](CO)C(=O)N[C@@H](CC(N)=O)C(=O)N[C@@H](CC(C)C)C(=O)N[C@@H](CO)C(=O)N[C@@H]([C@@H](C)O)C(=O)N2)[C@@H](C)O)[C@@H](C)O)[C@@H](C)O)[C@@H](C)O)CSSC[C@@H](C(=O)N[C@@H](Cc2ccc(O)cc2)C(=O)NCC(=O)O)NC(=O)[C@H](CCC(N)=O)NC(=O)[C@@H]2CCCN2C(=O)[C@@H]2CCCN2C1=O [Cal-CH] | 100.0 ± 0.0% | 89.3 ± 2.9% | 90.9 ± 4.7% | 83.8 ± 0.4% | 82.2 ± 4.1% | 52.4% | 51.8 ± 0.4% | 51.2 ± 1.8% | 24.6 ± 0.5% | – | stability towards chymotrypsin hydrolysis (in words) [1]: resistant to the corresponding protease degradation; Remaining peak area (%)/Trypsin ([2]; 0 h): 100.0 ± 0.0%; remaining at 0.025 h, 60 μM [2, 4]: 13.4 ± 2.3%; remaining at 0.05 h, 60 μM [2, 4]: 0%; remaining at 0.075 h, 60 μM [2, 4]: 0%; remaining at 0.1 h, 60 μM [2, 4]: 0%; remaining at 0.15 h, 60 μM [2, 4]: 0%
CC[C@H](C)[C@@H]1NC(=O)[C@H](CO)NC(=O)[C@H](C)NC(=O)[C@H]([C@@H](C)O)NC(=O)[C@@H](NC(=O)[C@@H](N)CC(C)C)CSSC[C@@H](C(=O)N[C@@H](Cc2ccc(O)cc2)C(=O)O)NC(=O)[C@H](CCC(N)=O)NC(=O)[C@@H]2CCCN2C(=O)[C@@H]2CCCN2C1=O [EC1] (H-LCTASIPPQCY-OH; disulfide 2-10; C-terminus assumed) | – | – | – | – | – | – | – | – | – | – | inhibitory activity against elastase (in words) [3]: better inhibitory activity against Elastase; Ki ([3]; read-out: Ki): 0.33 µM
CC[C@H](C)[C@@H]1NC(=O)[C@H](CO)NC(=O)[C@H](C)NC(=O)[C@H]([C@@H](C)O)NC(=O)[C@H](C)NC(=O)[C@H](CC(C)C)NC(=O)CNC(=O)[C@@H](N)CSSC[C@@H](C(=O)N[C@@H](Cc2ccc(O)cc2)C(=O)O)NC(=O)[C@H](CCC(N)=O)NC(=O)[C@@H]2CCCN2C(=O)[C@@H]2CCCN2C1=O [EC3] (H-CGLATASIPPQCY-OH; disulfide 1-12; N-terminus and C-terminus assumed) | – | – | – | – | – | – | – | – | – | > 50 µM | –
CC[C@H](C)[C@@H]1NC(=O)[C@H](CO)NC(=O)[C@H](C)NC(=O)[C@H]([C@@H](C)O)NC(=O)CNC(=O)[C@H](CC(C)C)NC(=O)CNC(=O)[C@@H](N)CSSC[C@@H](C(=O)N[C@@H](Cc2ccc(O)cc2)C(=O)O)NC(=O)[C@H](CCC(N)=O)NC(=O)[C@@H]2CCCN2C(=O)[C@@H]2CCCN2C1=O [EC4] (H-CGLGTASIPPQCY-OH; disulfide 1-12) | – | – | – | – | – | – | – | – | – | > 50 µM | –
CC[C@H](C)[C@@H]1NC(=O)[C@H](CO)NC(=O)[C@H](C)NC(=O)[C@H]([C@@H](C)O)NC(=O)[C@H](C)NC(=O)[C@H](CC(C)C)NC(=O)[C@@H](N)CSSC[C@@H](C(=O)N[C@@H](Cc2ccc(O)cc2)C(=O)O)NC(=O)[C@H](CCC(N)=O)NC(=O)[C@@H]2CCCN2C(=O)[C@@H]2CCCN2C1=O [EC5] (H-CLATASIPPQCY-OH; disulfide 1-11; N-terminus and C-terminus assumed) | – | – | – | – | – | – | – | – | – | > 50 µM | –
